# According to US20120115742A1, “METHODS FOR IDENTIFICATION” (Cambridge Enterprise Limited, priority 2009, published 2012):
# Where two headings read alike, the source gives them in different places.
# Key:
# sstr2 = target: T1, sstr2 (Homo sapiens, UniProt P30874); test: [3H]-BN83250 equilibrium binding to THP-1 cells (Scatchard/competition)
# T1 construct: with 1×10^6 THP-1 cells in Gey's Balanced Salt Solution, 10 nM [^3H]-BN83250; endogenous in cells; host or cells: THP-1 cells (intact cells, 4 °C)
# T1 sequence (P30874 whole entry): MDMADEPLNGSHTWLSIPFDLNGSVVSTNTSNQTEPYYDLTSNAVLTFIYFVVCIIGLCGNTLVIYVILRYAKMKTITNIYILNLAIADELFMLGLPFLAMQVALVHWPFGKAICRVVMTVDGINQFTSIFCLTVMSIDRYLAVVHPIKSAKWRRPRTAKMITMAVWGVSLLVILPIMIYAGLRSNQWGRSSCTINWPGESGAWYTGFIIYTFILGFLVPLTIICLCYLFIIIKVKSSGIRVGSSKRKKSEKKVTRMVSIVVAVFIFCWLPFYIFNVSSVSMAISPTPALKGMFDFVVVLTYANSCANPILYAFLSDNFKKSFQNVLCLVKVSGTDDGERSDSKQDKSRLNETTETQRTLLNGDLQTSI
# Protocol: Methods: [^3H]-BN83250 was synthesesized from (S,E)-3-(2′,2′-dimethyldodec-4′-enoylamino)-caprolactam by catalytic hydrogenation using tritium gas over a palladium catalyst (CRB Ltd, Cleveland, UK), yielding the tritiated product at a concentration of 270 μM in ethanol with a specific activity of 220Ci/mmol. The (S,E)-3-(2′,2′-dimethyldodec-4′-enoylamino)-caprolactam was prepared as follows: (S,S)-3-amino-caprolactam hydro-pyrrolidine-5-carboxylate (10 mmol) and Na2CO3 (30 mmol) in water (30 ml) were added to a solution of 2,2-dimethyl-dodec-4-enoyl chloride (10 mmol) in dichloromethane (30 ml) at ambient temperature and the reaction was stirred for 12 hours. The organic layer was then separated and the aqueous phase was extracted with additional dichloromethane (2×25 ml). The combined organic layers were dried over Na2CO3 and reduced in vacuo. The residue was purified by silica column chromatography (1:1 EtOAc:hexanes to EtOAc) to give (S,E)-3-(2′,2′-dimethyl-dodec-4′-enoyl)amino-caprolactam as a colourless oil (2.12 g, 63%). The radiolabelled compound was stored in the dark at 4° C. until required. Prior to use the specific activity was adjusted by addition of unlabelled BN83250.
# For the analysis of binding, individual reactions were set up (in triplicate for each condition), with 1×10^6 THP-1 cells in Gey's Balanced Salt Solution, 10 nM [^3H]-BN83250 (at 50 Ci/mmol) and various concentrations of (S)-3(2′2′-dimethylpropionoylamino)-tetrahydropyridin-2-one (10 pM to 10 μM). Excess (100 μM) unlabelled BN83250 was used to determine the level of non-specific binding. After 2 hours at 4° C. (conditions previously shown to achieve equilibrium binding, and which prevent uptake of the radioligand that would result in an over-estimate of binding) excess label was washed away by centrifugation (3 washes with 5 ml of Gey's Balanced Salt Solution) and the bound radioactivity was determined by scintillation counting of the solubilised cell pellet.
# Hits from this assay were confirmed using conventional Scatchard analysis, exactly as described in Example 4 above.
# Panc-2H4 cells = test: Human Panc-2H4 insulin suppression assay; format: cell-based; conditions: for Human Panc-2H4 insulin suppression assay Max effect: suppression compared to vehicle
# Text: (§1) Two different assays for “classical” sstr2 functions were adopted: (1) cultured foetal rat pituitary cells secreted growth hormone which is inhibited by sstr2 agonists in a dose-dependent fashion and (2) selected glucose-sensitive sub-clones of the human Panc-1 cell line secrete insulin which is inhibited by sstr2 agonists in a dose-dependent fashion.
# Glucose-sensitive sub-clones of the human Panc-1, a cell line derived from a pleiomorphic epithelioid carcinoma of the exocrine pancreas, were obtained essentially as described by Hamil et al. (2008) Biomed. Sci. Instrum. 44:441-6. Briefly, Panc-1 cells were subcultured in 24 well plates, and the medium was supplemented with an additional 5% glucose. […] The resulting sub-lines were then tested for glucose sensitivity by preparing wells of a 96-well plate (5×10^4 cells per well) which were then exposed to cultured medium containing a range of glucose concentrations (low glucose DMEM, DMEM, DMEM+1% glucose, DMEM+2.5% glucose and DMEM+5% glucose). After 24 hrs incubation, the conditioned medium was collected and assayed for insulin secretion by ELISA (Linco; cat# EZHI-14K) in accordance with the manufacturer's instructions. […] Further 96 well plates were prepared using Panc-2H4 (5×10^4 cells per well) in DMEM. After 24 hrs, the medium was switched to DMEM+5% glucose containing various test agents at various concentrations (triplicate wells per condition). After a further 24 hrs, the conditioned medium was harvested and the concentration of insulin was determined by ELISA as described above.
# (§2) Results were reported as the mean SD, expressed as the fold change from cells in the presence of vehicle only.
# fetal rat pituicytes = test: Rat pituicyte GH suppression assay; format: cell-based; conditions: Table 3; suppression compared to vehicle
# Text: as §1
# Methods: Cultures of fetal rat pituicytes were established exactly as previously described (Murray et al. (2004) J. Clin. Endocrinol. Metab. 89:3027-32) by enzymatic dispersion. After 48 hrs in low glucose DMEM plus 10% FCS, cells in 48 well plates (5×10^4 cells per well) were washed for 4 hrs in serum-free DMEM and then incubated with test agents at various concentrations for a further 24 hrs in serum-free DMEM. At the end of this period, the conditioned medium was harvested, any cell debris removed by centrifugation and assayed for […] using a commercially available ELISA (Linco; cat# EZRMGH-45K) in accordance with the manufacturer's instructions.
# as §2
# [1] = test system: rat peripheral blood leukocytes; test: Rat chemokine-induced PBMC migration assay; format: cell-based
# Protocol: Similarly, where human Panc-2H4 cells are used to determine the effect of agents on classical sstr2 targets, the result is compared with the effect of the same agents on chemokine-induced migration of human THP-1 cells. […] For this reason, the ratio of “classical” to “BSCI” activity in Table 3 is calculated separately for rat and human.
# THP-1 cells = test: MCP-1 induced THP-1 cell migration (Transwell/ChemoTx); conditions: for “Classical”:“BSCI” potency ratio, Human: THP-1 migration ED50 versus Panc-2H4 insulin ED50; for RATIO: Table 4, migration ED50 versus insulin ED50
# Protocol: Leukocyte migration was measured using the 96-well format micro Transwell® assay system from Neuroprobe (Gaithersburg, Md., USA). In principle, this assay consists of two chambers separated by a porous membrane. The chemoattractant is placed in the lower compartment and the cells are placed in the upper compartment.
# First, the cell suspension to be placed in the upper compartment was prepared. The THP-1 cells were pelleted by centrifugation (770×g; 4 mins) and washed with Geys Balanced Salt Solution with 1 mg/ml BSA (GBSS+BSA). This wash was then repeated, and the cells re-pelleted before being resuspended in a small volume of GBSS+BSA for counting, for example using a standard haemocytometer.
# This ensured that there were 100,000 THP-1 cells in each 25 μl of the solution to be placed in the upper chamber of the plate.
# To the third pot, GBSS+BSA plus vehicle as appropriate was added so that the volumes in three pots are equal, acting as a control.
# Next, the chemoattractant solution to be placed in the lower compartment was prepared. […] This solution was divided into three pots, as for the cell suspension. To one pot, the BSCI was added to the same final concentration as was added to the cell suspension, in the second pot the BSCI and the sstr2 antagonist were both added at the same concentration as previously added to the cell suspension, while to the remaining pot GBSS+BSA plus vehicle as appropriate was added so that the volumes in the three pots were equal.
# Once the chemoattractant solutions for the lower wells and cell solutions for the upper chambers were prepared, the migration chamber was assembled. 29 μl of the appropriate chemoattractant solution was placed into the lower well of the chamber. Assays were performed with at least triplicate determinations of each condition. Once all the lower chambers were filled, the porous membrane was applied to the chamber in accordance with the manufacturer's instructions. Finally, 25 μl of the appropriate cell solution was applied to each upper chamber. A plastic lid was placed over the entire apparatus to prevent evaporation.
# The assembled chamber was incubated at 37° C., 5% CO2, for 2 hours.
# At the end of the incubation, the liquid cell suspension was gently removed from the upper chamber, 20 μl of ice-cold 20 mM EDTA in PBS was added to the upper chamber, and the apparatus was incubated at 4° C. for 15 mins. This procedure caused any cells adhering to the underside of the membrane to fall into the lower chamber.
# After this incubation the filter was carefully flushed with GBSS+BSA to wash off the EDTA, and then the filter was removed.
# The number of cells migrated into the lower chamber under each condition can then be determined by a number of methods, including direct counting, labelling with fluorescent or radioactive markers or through the use of a vital dye. Typically, we utilised the vital dye MTT. 3 μl of stock MTT solution were added to each well, and then the plate was incubated at 37° C. for 1-2 hours during which time dehydrogenase enzymes within the cells converted the soluble MTT to an insoluble blue formazan product that could be quantified spectrophotometrically.
# In parallel, an 8-point standard curve was set up. Starting with the number of cells added to each upper chamber (100,000) and going down in 2-fold serial dilutions in GBSS+BSA, the cells were added to a plate in 25 with 3 μl of MTT stock solution added. The standard curve plate was incubated along side the migration plate. At the end of this incubation, the liquid was carefully removed from the lower chambers, taking care not to disturb the precipitated formazan product.
# The MCP-1 stimulated migration was determined by subtracting the average number of cells that reached the lower compartment in wells where no MCP-1 was added from the average number of cells that reached the lower compartment where MCP-1 was present at 25 ng/ml.
# TNF-alpha = test: Sub-lethal endotoxemia model, serum TNF-alpha after LPS; format: in vivo, mouse; conditions: very high / highest doses, 2 hours post LPS
# Protocol: We selected the sub-lethal endotoxemia model in mouse, because this has been well characterised in our laboratory (see for example Fox et al. (2002) J. Med. Chem. 45:360-70; Fox et al. (2005) J. Med. Chem. 48:867-74). The extent of systemic inflammation in response to a single intraperitoneal injection of bacterial lipopolysaccharide (LPS) can be estimated by measuring serum TNF-alpha 2 hours post challenge.
# Methods: Mice (CD1 strain; adult males; 6 per group) were treated with BSCI (in an appropriate vehicle) or with vehicle alone by an appropriate route. […] Simultaneously, one set of mice at each BSCI concentration received BIM 23627 at 4 mg/animal (120 mg/kg) by sub-cutaneous injection (a treatment condition known to suppress classical sstr2-mediated signalling, such as GH release, in rats; Tulipano et al. (2002) 143:1218-24). Between 30 mins and 1 hour after dosing (a period when a maximal plasma concentration of BSCI has been achieved), the inflammatory challenge was elicited by intraperitoneal injection of 750 μg of LPS (Sigma; L4130 lot#024K4077; 900,000 EU/mg).
# After a further 2 hours, the animals were sacrificed by CO2 asphyxiation, and blood was drawn by cardiac puncture. Serum was prepared by conventional methods, and the level of TNF-alpha in serum was measured using an ELISA (R&D Systems; Murine Quantikine code# MTA00) performed in accordance with the manufacturer's instructions.
# [2] = target: type 2 somatostatin receptor (sstr2), human (human) (UniProt P30874); test: cell-based or functional assay
# Sequence of type 2 somatostatin receptor (sstr2), human (human) (P30874 whole entry): as above
# [3] = target: type 2 somatostatin receptor (sstr2), rat (rat) (UniProt P30680); test: cell-based or functional assay
# Sequence of type 2 somatostatin receptor (sstr2), rat (rat) (P30680 whole entry): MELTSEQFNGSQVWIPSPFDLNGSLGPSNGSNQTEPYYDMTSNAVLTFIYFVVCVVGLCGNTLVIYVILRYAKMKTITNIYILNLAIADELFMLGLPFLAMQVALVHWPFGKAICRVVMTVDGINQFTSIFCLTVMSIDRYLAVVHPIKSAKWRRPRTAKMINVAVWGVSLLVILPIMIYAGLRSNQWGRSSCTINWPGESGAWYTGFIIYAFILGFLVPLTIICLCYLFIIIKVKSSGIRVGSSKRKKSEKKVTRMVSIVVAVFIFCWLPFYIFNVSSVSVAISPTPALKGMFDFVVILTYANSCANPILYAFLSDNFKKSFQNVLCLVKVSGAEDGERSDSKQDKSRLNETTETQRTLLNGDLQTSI
# [4] = Table 4, 0.01-1,000 nM, 1% DMSO, read-out: Panc-2H4 insulin suppression assay (“classical” target) ED50
molecule,measurement,setting,value
CC(C)(C)C(=O)N[C@H]1CCCNC1=O,Hill Slope,sstr2; competition with [3H]-BN83250,approximately −1.0
CC(=O)NC(CC(N)=O)C(=O)NC(C(=O)NCC1CCCC(CN)C1)C(C)c1c[nH]c2ccccc12 (mixture of isomers) [D],Panc-2H4 insulin suppression assay Max Effect,Panc-2H4 cells; Table 4,37%
CC1(C(=O)N[C@H]2CCCCNC2=O)CCCCC1 [(S)-3-(1′-methylcyclohexyl-1′-carbonylamino)-caprolactam],competition with BN83250 binding to sstr2,sstr2,compete with BN83250 binding to sstr2 to a similar extent
"O=C1NCCCC[C@@H]1NC(=O)C12CC3CC(CC(C3)C1)C2 [BN83470, (S)-3-(admantane-1′-carbonylamino)-caprolactam]",competition with BN83250 binding to sstr2,sstr2,compete with BN83250 binding to sstr2 to a similar extent
same,Rat pituicyte GH suppression assay Max effect,fetal rat pituicytes,56%
same,"“Classical”:“BSCI” potency ratio, Rat",[1]; PBMC migration ED50 versus pituicyte GH ED50,0.0008
same,Rat chemokine-induced PBMC migration assay Max effect,[1]; Table 3,100%
same,"“Classical”:“BSCI” potency ratio, Human",THP-1 cells,<0.00008
same,Human chemokine-induced THP-1 migration assay Max effect,THP-1 cells; Table 3,100%
same,EC50,"Panc-2H4 cells; Table 3, read-out: Human Panc-2H4 insulin suppression assay ED50",> 1000 nM
same,Human Panc-2H4 insulin suppression assay Max effect,Panc-2H4 cells; Table 3,<10%
same,inhibition of insulin secretion by Panc-2H4,Panc-2H4 cells; highest concentrations tested,None of these agents inhibited insulin secretion
CC(c1c[nH]c2ccccc12)C(NC(=O)N1CC(=O)NC(=O)C1)C(=O)NCC1CCCC(CN)C1 (stereo not shown) [Compound B],RATIO,THP-1 cells,1.3
same,Panc-2H4 insulin suppression assay Max Effect,Panc-2H4 cells; Table 4,52%
CC(c1c[nH]c2ccccc12)C(NC(=O)NC1CCCNC1=O)C(=O)NCC1CCCC(CN)C1 (stereo not shown) [Compound C],RATIO,THP-1 cells,0.02
same,Panc-2H4 insulin suppression assay Max Effect,Panc-2H4 cells; Table 4,56%
CC(=O)NC(=O)C(NC(=O)N1CCC(n2c(=O)[nH]c3ccccc32)CC1)C(C)c1c[nH]c2ccccc12 (stereo not shown) [E],Panc-2H4 insulin suppression assay Max Effect,Panc-2H4 cells; Table 4,<10%
same,EC50,Panc-2H4 cells; [4],> 1000 nM
NCC1CCCC(CNC(=O)C(Cc2ccccc2)NC(=O)N2CCC(n3c(=O)[nH]c4ccccc43)CC2)C1 (stereo not shown) [F],Panc-2H4 insulin suppression assay Max Effect,Panc-2H4 cells; Table 4,<10%
same,EC50,Panc-2H4 cells; [4],> 1000 nM
"C[C@@H](c1c[nH]c2ccccc12)[C@@H](NC(=O)N1CCC(n2c(=O)[nH]c3ccccc32)CC1)C(=O)NC[C@@H]1CCC[C@H](CN)C1 [L-779,976]",Rat pituicyte GH suppression assay Max effect,fetal rat pituicytes,55%
same,"“Classical”:“BSCI” potency ratio, Human",THP-1 cells,27
same,Human Panc-2H4 insulin suppression assay Max effect,Panc-2H4 cells; Table 3,40%
same,Panc-2H4 insulin suppression assay Max Effect,Panc-2H4 cells; Table 4,40%
same,Panc-2H4 insulin suppression assay Max Effect,Panc-2H4 cells; Table 5,40%
C[C@@H]1C[C@H]2[C@@H]3CCC4=CC(=O)C=C[C@]4(C)[C@@]3(F)[C@@H](O)C[C@]2(C)[C@@]1(O)C(=O)CO [dexamethasone],inhibition of serum TNF-alpha,TNF-alpha,more than 90%
BIM58187 (peptide),Human Panc-2H4 insulin suppression assay ED50,[2],> 1000 nM
same,Human Panc-2H4 insulin suppression assay Max effect,[2],< 10%
same,Human chemokine-induced THP-1 migration assay ED50,[2],6.9 nM
same,Human chemokine-induced THP-1 migration assay Max effect,[2],100%
same,Rat chemokine-induced PBMC migration assay ED50,[3],15 nM
same,Rat chemokine-induced PBMC migration assay Max effect,[3],100%
same,Rat pituicyte GH suppression assay ED50,[3],550 nM
same,Rat pituicyte GH suppression assay Max effect,[3],42%
SST-28: alternatively processed sst28 natural ligand,Max effect (maximum inhibition),"THP-1 cells; Table 2, at the highest dose tested (1-10 μM)",40-60%
somatostatin-28 (from UniProt P61278 89-116) (peptide),Human Panc-2H4 insulin suppression assay ED50,[2],0.14 nM
same,Human Panc-2H4 insulin suppression assay Max effect,[2],51%
same,Human chemokine-induced THP-1 migration assay ED50,[2],0.9 nM
same,Human chemokine-induced THP-1 migration assay Max effect,[2],38%
same,Rat chemokine-induced PBMC migration assay ED50,[3],1.2 nM
same,Rat chemokine-induced PBMC migration assay Max effect,[3],44%
same,Rat pituicyte GH suppression assay ED50,[3],0.17 nM
same,Rat pituicyte GH suppression assay Max effect,[3],73%
